Measurements taken from PMC11369081, “Molecular mechanism of prolactin-releasing peptide recognition and signaling via its G protein-coupled receptor” (Cell Discovery, 2024).
Peptide text beside a SMILES is read from it.

Key:
Format in all cases: cell-based
PrRPR T233A = target: T1, PrRPR T233A (Homo sapiens, UniProt P49683, T233A); test: BRET2 Gq dissociation, T233A; details: T233A (5.46), Gq-coupling, AD293 cells; mean ± S.E.M., n = 3; P <0.0001 vs WT; read-out: BRET2 pEC50 (converted)
T1 construct: Flag; expressed in transfected cells; host or cells: AD293 cells
Protocol: (§1) AD293 cells (Agilent) were propagated in Dulbecco’s Modified Eagle Medium (DMEM, Thermo Fisher Scientific), enriched with 10% fetal bovine serum (FBS, Thermo Fisher Scientific), and maintained at 37 °C in a 5% CO2 environment. Cells were then seeded in 6-well dishes at a density of 130,000–150,000 cells per mL and allowed to incubate overnight. On the next day, cells were transfected with plasmids at a 1:1:1:1 ratio for receptor:Gα-RLuc8:Gβ:Gγ-GFP2[52]. PEI MAX 40 K (BIOHUB) was utilized to form complex with the plasmids at a ratio of 3 µL PEI per µg of plasmids, in OptiMEM (Gibco-Thermo Fisher Scientific) at a concentration of 10 ng plasmids per µL OptiMEM. After 24 h of incubation, the culture was harvested by centrifugation with PBS. The cell suspension was then allocated into a white 384-well plate at a volume of 30 µL per well, followed by the addition of 10 µL of freshly prepared 50 µM coelenterazine 400a (Yeasen). […] Plates were subsequently read in a BioTek Synergy H1 microplate reader (BioTek) equipped with 395 nm (RLuc8-coelenterazine 400a) and 510 nm (GFP2) emission filters. BRET2 ratios were calculated as the ratio of the GFP2 emission to RLuc8 emission. […]
(§2) Supplementary Fig. S4 | Effects of mutations in the ligand-binding pocket and G protein intereface of Gq coupled PrRPR by BRET2 assay. […] BRET2 assay signals were measured after stimulation with PrRP20. […]

PrRPR W127A = target: T2, PrRPR W127A (Homo sapiens, UniProt P49683, W127A); test: BRET2 Gi dissociation, W127A; details: W127A (23.50), Gi-coupling, AD293 cells; mean ± S.E.M., n = 3; P <0.0001 vs WT; read-out: BRET2 pEC50 (converted)
T2 construct: expressed in transfected cells; host or cells: AD293 cells
Protocol: (§3) AD293 cells (Agilent) were propagated in Dulbecco’s Modified Eagle Medium (DMEM, Thermo Fisher Scientific), enriched with 10% fetal bovine serum (FBS, Thermo Fisher Scientific), and maintained at 37 °C in a 5% CO2 environment. Cells were then seeded in 6-well dishes at a density of 130,000–150,000 cells per mL and allowed to incubate overnight. On the next day, cells were transfected with plasmids at a 1:1:1:1 ratio for receptor:Gα-RLuc8:Gβ:Gγ-GFP2[52]. PEI MAX 40 K (BIOHUB) was utilized to form complex with the plasmids at a ratio of 3 µL PEI per µg of plasmids, in OptiMEM (Gibco-Thermo Fisher Scientific) at a concentration of 10 ng plasmids per µL OptiMEM. After 24 h of incubation, the culture was harvested by centrifugation with PBS. The cell suspension was then allocated into a white 384-well plate at a volume of 30 µL per well, followed by the addition of 10 µL of freshly prepared 50 µM coelenterazine 400a (Yeasen). Following a 15-min equilibration period, cells were treated with 10 µL of ligand for an additional 5 min. Plates were subsequently read in a BioTek Synergy H1 microplate reader (BioTek) equipped with 395 nm (RLuc8-coelenterazine 400a) and 510 nm (GFP2) emission filters. BRET2 ratios were calculated as the ratio of the GFP2 emission to RLuc8 emission. Data were normalized to the baseline response of the ligand. […]

PrRPR WT = target: T3, PrRPR WT (Homo sapiens, UniProt P49683); test: BRET2 Gi dissociation, WT; details: Gi-coupling, AD293 cells
T3 construct: expressed in transfected cells; host or cells: AD293 cells
T3 sequence (P49683 1-370): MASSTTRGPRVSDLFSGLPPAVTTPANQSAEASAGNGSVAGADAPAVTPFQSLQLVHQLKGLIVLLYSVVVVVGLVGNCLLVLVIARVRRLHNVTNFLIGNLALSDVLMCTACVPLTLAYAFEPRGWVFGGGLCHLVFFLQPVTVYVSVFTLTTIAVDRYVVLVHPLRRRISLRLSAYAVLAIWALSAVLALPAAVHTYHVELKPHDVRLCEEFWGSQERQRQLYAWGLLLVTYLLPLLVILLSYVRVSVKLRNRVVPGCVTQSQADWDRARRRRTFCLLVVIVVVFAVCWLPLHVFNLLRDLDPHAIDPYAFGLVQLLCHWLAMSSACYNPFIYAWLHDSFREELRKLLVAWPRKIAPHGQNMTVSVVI
Protocol: as §3

PrRPR L229A [1] = target: T4, PrRPR L229A (Homo sapiens, UniProt P49683, L229A); test: BRET2 Gi dissociation, L229A; details: L229A (5.42), Gi-coupling, AD293 cells; mean ± S.E.M., n = 3; P <0.0001 vs WT; read-out: BRET2 pEC50 (converted)
T4 construct: Flag; expressed in transfected cells; host or cells: AD293 cells
Protocol: as §3

PrRPR Y225A = target: T5, PrRPR Y225A (Homo sapiens, UniProt P49683, Y225A); test: BRET2 Gq dissociation, Y225A; details: Y225A (5.38), Gq-coupling, AD293 cells; mean ± S.E.M., n = 3; P <0.0001 vs WT; read-out: BRET2 pEC50 (converted)
T5 construct: Flag; expressed in transfected cells; host or cells: AD293 cells
Protocol: as §1, §2

PrRPR Y120A = target: T6, PrRPR Y120A (Homo sapiens, UniProt P49683, Y120A); test: BRET2 Gi dissociation, Y120A; details: Y120A (2.64), Gi-coupling, AD293 cells; mean ± S.E.M., n = 3; P <0.0001 vs WT; read-out: BRET2 pEC50 (converted)
T6 construct: expressed in transfected cells; host or cells: AD293 cells
Protocol: as §3

PrRPR L294A = target: T7, PrRPR L294A (Homo sapiens, UniProt P49683, L294A); test: BRET2 Gq dissociation, L294A; details: L294A (6.51), Gq-coupling, AD293 cells; mean ± S.E.M., n = 3; P <0.0001 vs WT; read-out: BRET2 pEC50 (converted)
T7 construct: Flag; expressed in transfected cells; host or cells: AD293 cells
Protocol: as §1, §2

PrRPR D302A = target: T8, PrRPR D302A (Homo sapiens, UniProt P49683, D302A); test: BRET2 Gq dissociation, D302A; details: D302A (6.59), Gq-coupling, AD293 cells; mean ± S.E.M., n = 3; P <0.0001 vs WT; read-out: BRET2 pEC50 (converted)
T8 construct: Flag; expressed in transfected cells; host or cells: AD293 cells
Protocol: as §1, §2

PrRPR L229A [2] = target: T4, PrRPR L229A; test: BRET2 Gq dissociation, L229A; details: L229A (5.42), Gq-coupling, AD293 cells; mean ± S.E.M., n = 3; P <0.0001 vs WT; read-out: BRET2 pEC50 (converted)
Protocol: as §1, §2

PrRPR L210A = target: T9, PrRPR L210A (Homo sapiens, UniProt P49683, L210A); test: BRET2 Gq dissociation, L210A; details: L210A (ECL2), Gq-coupling, AD293 cells; mean ± S.E.M., n = 3; P <0.0001 vs WT; read-out: BRET2 pEC50 (converted)
T9 construct: expressed in transfected cells; host or cells: AD293 cells
Protocol: as §1, §2

T4 sequence (P49683 whole entry L229A): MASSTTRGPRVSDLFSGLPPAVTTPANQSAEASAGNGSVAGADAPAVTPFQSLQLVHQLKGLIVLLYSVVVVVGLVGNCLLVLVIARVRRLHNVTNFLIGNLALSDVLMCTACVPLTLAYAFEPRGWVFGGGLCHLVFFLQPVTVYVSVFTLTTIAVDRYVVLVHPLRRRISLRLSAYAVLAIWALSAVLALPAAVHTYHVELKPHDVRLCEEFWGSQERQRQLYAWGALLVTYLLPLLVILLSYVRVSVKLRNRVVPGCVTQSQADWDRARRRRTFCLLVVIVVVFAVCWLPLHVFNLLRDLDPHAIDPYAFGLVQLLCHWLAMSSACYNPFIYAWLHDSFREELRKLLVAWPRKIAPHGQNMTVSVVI
T8 sequence (P49683 whole entry D302A): as the sequence (P49683 whole entry L229A) above, with A229L, D302A counted along it
T9 sequence (P49683 whole entry L210A): as the sequence (P49683 whole entry L229A) above, with L210A, A229L counted along it
T1 sequence (P49683 whole entry T233A): as the sequence (P49683 whole entry L229A) above, with A229L, T233A counted along it
T7 sequence (P49683 whole entry L294A): as the sequence (P49683 whole entry L229A) above, with A229L, L294A counted along it
T2 sequence (P49683 whole entry W127A): as the sequence (P49683 whole entry L229A) above, with W127A, A229L counted along it
T6 sequence (P49683 whole entry Y120A): as the sequence (P49683 whole entry L229A) above, with Y120A, A229L counted along it
T5 sequence (P49683 whole entry Y225A): as the sequence (P49683 whole entry L229A) above, with Y225A, A229L counted along it

CC[C@H](C)[C@H](NC(=O)CNC(=O)[C@H](CCCNC(=N)N)NC(=O)[C@H](CO)NC(=O)[C@H](C)NC(=O)[C@H](Cc1ccc(O)cc1)NC(=O)[C@H](Cc1c[nH]c2ccccc12)NC(=O)[C@H](C)NC(=O)[C@@H]1CCCN1C(=O)[C@H](CC(N)=O)NC(=O)[C@@H](NC(=O)[C@H](CC(=O)O)NC(=O)[C@@H]1CCCN1C(=O)[C@@H](N)[C@@H](C)O)[C@@H](C)CC)C(=O)N[C@@H](CCCNC(=N)N)C(=O)N1CCC[C@H]1C(=O)N[C@H](C(=O)NCC(=O)N[C@@H](CCCNC(=N)N)C(=O)N[C@@H](Cc1ccccc1)C(N)=O)C(C)C [PrRP20] (H-TPDINPAWYASRGIRPVGRF-NH2)
EC50 (PrRPR T233A): 0.00575 µM
EC50 (PrRPR W127A): 0.49 µM
BRET2 span (PrRPR WT; WT (reference for normalisation), n = 3): 100.00 %WT
EC50 (PrRPR WT; WT, 5 min ligand, mean ± S.E.M., n = 3 (triplicates), read-out: BRET2 pEC50 (converted)): 0.00186 µM
EC50 (PrRPR L229A [1]): 0.0851 µM
EC50 (PrRPR Y225A): 0.178 µM
EC50 (PrRPR Y120A): 3.39 µM
EC50 (PrRPR L294A): 0.00562 µM
EC50 (PrRPR D302A): 0.151 µM
EC50 (PrRPR L229A [2]): 0.0204 µM
EC50 (PrRPR L210A): 0.00708 µM
